ChEMBL document CHEMBL1201862, “PubChem BioAssay data set” (2004)
Calls of active or inactive are those of the source.

Tests used:
[1] = target: T1, Apoptotic protease-activating factor 1 (Homo sapiens, UniProt O14727); type: functional
T1 sequence (O14727 whole entry): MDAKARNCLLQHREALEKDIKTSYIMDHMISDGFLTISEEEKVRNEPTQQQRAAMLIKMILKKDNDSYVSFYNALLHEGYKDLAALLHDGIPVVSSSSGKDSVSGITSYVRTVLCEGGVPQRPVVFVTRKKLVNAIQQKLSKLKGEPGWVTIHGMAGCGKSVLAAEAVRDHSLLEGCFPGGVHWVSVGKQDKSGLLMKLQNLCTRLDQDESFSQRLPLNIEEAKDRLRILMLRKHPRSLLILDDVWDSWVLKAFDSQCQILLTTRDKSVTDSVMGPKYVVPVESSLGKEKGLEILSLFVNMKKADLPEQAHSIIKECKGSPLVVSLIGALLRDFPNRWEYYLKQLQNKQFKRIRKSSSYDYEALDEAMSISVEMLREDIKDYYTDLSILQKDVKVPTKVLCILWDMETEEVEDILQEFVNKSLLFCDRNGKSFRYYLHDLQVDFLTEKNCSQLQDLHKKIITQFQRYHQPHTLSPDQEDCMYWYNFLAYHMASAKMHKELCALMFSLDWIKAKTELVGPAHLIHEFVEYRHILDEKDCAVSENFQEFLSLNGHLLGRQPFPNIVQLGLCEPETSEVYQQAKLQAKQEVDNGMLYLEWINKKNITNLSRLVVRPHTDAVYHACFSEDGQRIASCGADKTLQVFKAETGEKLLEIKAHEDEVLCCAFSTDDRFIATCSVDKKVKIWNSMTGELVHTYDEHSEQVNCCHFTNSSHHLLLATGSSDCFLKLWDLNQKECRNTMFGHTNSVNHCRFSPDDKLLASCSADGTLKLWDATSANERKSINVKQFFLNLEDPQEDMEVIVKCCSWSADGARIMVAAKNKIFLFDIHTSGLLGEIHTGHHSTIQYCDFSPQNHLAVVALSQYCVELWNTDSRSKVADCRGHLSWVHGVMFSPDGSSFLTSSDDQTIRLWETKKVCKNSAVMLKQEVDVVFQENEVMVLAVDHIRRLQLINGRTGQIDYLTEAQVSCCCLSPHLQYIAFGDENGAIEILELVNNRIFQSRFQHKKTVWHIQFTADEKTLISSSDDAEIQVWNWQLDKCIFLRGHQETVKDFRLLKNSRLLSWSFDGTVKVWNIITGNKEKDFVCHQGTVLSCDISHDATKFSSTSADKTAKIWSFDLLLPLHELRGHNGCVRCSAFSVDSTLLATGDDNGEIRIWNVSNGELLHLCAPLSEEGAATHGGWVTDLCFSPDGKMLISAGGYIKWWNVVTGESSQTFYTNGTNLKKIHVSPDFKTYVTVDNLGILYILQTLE

INS1 = assay: beta cell apoptosis inhibitors, cytokine rescue, dose response, luminescence, retest (AID 449756); type: functional, cell-based; conditions: Rattus norvegicus;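 also: cell death triggered by IL-1 beta plus TNF-alpha plus IFN-gamma mixture; protective hits raise ATP signal compared with cytokine alone wells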
[2] = target: Induced myeloid leukemia cell differentiation protein Mcl-1 (Homo sapiens, UniProt Q07820); type: functional
Sequence of Induced myeloid leukemia cell differentiation protein Mcl-1 (Q07820 whole entry): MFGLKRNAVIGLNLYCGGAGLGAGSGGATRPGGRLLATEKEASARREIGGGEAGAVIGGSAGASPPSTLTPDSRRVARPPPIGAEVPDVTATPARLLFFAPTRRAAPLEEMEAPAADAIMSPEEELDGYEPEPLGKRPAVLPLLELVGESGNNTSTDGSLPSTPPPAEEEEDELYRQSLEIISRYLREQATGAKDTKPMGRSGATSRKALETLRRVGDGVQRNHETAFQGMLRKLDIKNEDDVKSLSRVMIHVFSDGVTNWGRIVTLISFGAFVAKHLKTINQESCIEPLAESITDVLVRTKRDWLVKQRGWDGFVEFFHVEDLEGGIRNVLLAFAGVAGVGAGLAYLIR

[3] = Luminescence Cell-Based Dose Response HTS to Identify Inhibitors of 5'UTR Stem-Loop Driven Prion Protein mRNA Translation in H4 Neuroglioblastoma Cells. [Related pubchem assays: 1827 (Project Summary), 1813 (Primary HTS)]; type: functional
[4] = inhibitors of SNCA 5'UTR-driven reporter translation, confirmation, H4 neuroglioma cells, luminescence (AID 1988); type: functional, cell-based
[5] = inhibitors of intracellular T. cruzi replication, confirmation, NIH3T3 host cells, beta-gal luminescence (AID 2044); type: functional, cell-based;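 also: intracellular parasites grown in NIH/3T3 mouse fibroblasts as host cells; luminescent beta-galactosidase reporter signal from transgenic T. cruzi replicating inside host cells; inhibitors lower the luminescence signal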
Nonstructural protein 1 = Nonstructural protein 1 (Influenza A virus, UniProt Q194T2); type: functional, Influenza A virus (A/California/07/2009(H1N1))
Sequence of Nonstructural protein 1 (Q194T2 whole entry): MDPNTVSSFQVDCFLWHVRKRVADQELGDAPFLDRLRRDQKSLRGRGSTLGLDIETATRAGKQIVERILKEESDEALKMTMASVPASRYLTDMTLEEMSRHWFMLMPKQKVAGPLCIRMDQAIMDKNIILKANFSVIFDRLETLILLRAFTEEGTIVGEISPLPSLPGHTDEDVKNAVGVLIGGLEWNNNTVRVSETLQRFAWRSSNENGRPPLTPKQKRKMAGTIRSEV

[6] = inhibitors of firefly luciferase expression or activity, dose response, H4 neuroglioma cells, luminescence (AID 1990); type: functional, cell-based
[7] = cytotoxicity toward NIH3T3 fibroblasts, dose response, counter-screen, cell-based, ATP luminescence, mouse fibroblasts (AID 2010); type: functional;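 also: cells exposed to compound for about 90 hours before reading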
[8] = target: T2, DNA repair protein RAD52 homolog (Homo sapiens, UniProt P43351); type: functional, biochemical
T2 sequence (P43351 whole entry): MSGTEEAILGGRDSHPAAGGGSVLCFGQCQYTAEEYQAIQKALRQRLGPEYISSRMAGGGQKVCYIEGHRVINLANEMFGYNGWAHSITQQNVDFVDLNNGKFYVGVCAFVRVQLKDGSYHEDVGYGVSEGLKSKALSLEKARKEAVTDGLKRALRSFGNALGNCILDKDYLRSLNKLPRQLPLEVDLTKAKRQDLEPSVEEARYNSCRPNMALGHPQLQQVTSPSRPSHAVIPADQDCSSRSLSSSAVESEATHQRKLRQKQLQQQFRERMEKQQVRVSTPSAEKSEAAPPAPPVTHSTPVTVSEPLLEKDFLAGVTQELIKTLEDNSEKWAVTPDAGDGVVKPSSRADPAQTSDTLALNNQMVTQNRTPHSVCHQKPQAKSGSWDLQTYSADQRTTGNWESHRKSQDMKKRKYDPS

[9] = HEp-2 cell cytotoxicity, dose response, cytotoxicity control for RSV inhibitor project, HTS (AID 2410); type: functional; conditions: human respiratory syncytial virus
cells [10] = assay: cells
[11] = A cytotoxicity screen of small molecule inhibitors of the PhoP region in Salmonella typhi identified in the primary screen. [Related pubchem assays: 1850, 1864, 1985 ]; type: functional
Troponin, cardiac muscle = Troponin, cardiac muscle (Homo sapiens, UniProt P19429+P45379+P63316); assay: Fluorescence-based biochemical high throughput dose response assay for activators of the calcium sensitivity of cardiac Regulated Thin Filaments (RTF). [Related pubchem assays (depositor defined):AID493008, AID493018, AID504382, AID504383]; type: protein-complex assay
[12] = microbe, parasite or virus in culture; type: functional; conditions: Mycobacterium tuberculosis
[13] = growth suppression of beta-catenin-knockout colon cells, dose response, cell-based, HCT116, human colon tumor (AID 1045); type: functional;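 also: HCT116 colon tumor cells with beta catenin knocked out; cells exposed to compound for 60 hours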
[14] = growth suppression of PTEN-null colon cells, dose response, cell-based, HCT116 PTEN knockout (AID 1047); type: functional;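 also: HCT116 colon tumor cells with PTEN knocked out; cells exposed to compound for 60 hours before readout; potency for loss of cell viability measured by luminescence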
[15] = Vero E6 cell cytotoxicity, dose response, cytotoxicity control for non-replicating M. tuberculosis project, secondary assay (AID 492998); type: functional, VeroE6; conditions: Vero C1008
cells [16] = type: functional
[17] = THP-1 cell cytotoxicity, dose response, cytotoxicity control for non-replicating M. tuberculosis project (AID 489025); type: functional
[18] = HepG2 cell cytotoxicity, dose response, cytotoxicity control for non-replicating M. tuberculosis project (AID 489018); type: functional; conditions: Mycobacterium tuberculosis
[19] = Luminescence Cell-Based Dose Retest to Confirm Inhibitors of Cancer Stem Cells. [Related pubchem assays (depositor defined):AID2717, AID2721]; type: functional; conditions: Homo sapiens
Cytochrome P450 3A4 = Cytochrome P450 3A4 (Homo sapiens, UniProt P08684); conditions: Potency;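 also: confirmatory qHTS run detecting inhibitors and substrates of CYP3A4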
Sequence of Cytochrome P450 3A4 (P08684 whole entry): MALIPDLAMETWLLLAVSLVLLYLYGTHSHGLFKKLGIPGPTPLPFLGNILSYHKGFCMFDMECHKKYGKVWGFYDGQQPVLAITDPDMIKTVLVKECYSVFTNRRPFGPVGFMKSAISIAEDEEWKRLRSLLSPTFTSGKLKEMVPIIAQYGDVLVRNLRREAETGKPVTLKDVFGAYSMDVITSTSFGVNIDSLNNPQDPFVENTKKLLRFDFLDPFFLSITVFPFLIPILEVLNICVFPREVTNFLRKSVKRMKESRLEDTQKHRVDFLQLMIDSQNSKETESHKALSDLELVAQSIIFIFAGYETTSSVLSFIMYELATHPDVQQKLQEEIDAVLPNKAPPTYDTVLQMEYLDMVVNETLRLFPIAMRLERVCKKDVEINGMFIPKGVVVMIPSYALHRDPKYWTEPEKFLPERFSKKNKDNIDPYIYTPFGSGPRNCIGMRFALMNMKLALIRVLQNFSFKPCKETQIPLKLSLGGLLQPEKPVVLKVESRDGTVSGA

Large T antigen = Large T antigen (Simian virus 40, UniProt P03070); type: functional, Betapolyomavirus macacae;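 also: Confirmatory-stage PubChem screen for compounds that inhibit SV40 T antigen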
Sequence of Large T antigen (P03070 whole entry): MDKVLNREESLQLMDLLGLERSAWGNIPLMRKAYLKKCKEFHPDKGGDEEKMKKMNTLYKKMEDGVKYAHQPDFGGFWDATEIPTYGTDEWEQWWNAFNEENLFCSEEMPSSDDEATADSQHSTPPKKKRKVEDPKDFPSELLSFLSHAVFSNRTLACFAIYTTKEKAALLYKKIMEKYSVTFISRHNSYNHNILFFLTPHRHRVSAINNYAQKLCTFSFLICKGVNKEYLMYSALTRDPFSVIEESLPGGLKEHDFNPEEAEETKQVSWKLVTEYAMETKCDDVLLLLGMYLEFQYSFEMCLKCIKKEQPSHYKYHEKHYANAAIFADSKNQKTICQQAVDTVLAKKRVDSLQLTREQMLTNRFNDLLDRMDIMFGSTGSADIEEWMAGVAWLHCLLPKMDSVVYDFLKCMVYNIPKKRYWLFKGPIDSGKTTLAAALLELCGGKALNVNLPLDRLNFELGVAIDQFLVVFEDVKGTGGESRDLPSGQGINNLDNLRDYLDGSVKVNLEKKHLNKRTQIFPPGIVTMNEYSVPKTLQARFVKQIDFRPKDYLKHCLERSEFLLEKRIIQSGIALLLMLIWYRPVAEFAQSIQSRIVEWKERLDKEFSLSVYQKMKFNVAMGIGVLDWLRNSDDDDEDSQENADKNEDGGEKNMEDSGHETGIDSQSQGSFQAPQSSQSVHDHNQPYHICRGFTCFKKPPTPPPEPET

Compound: CCCOc1cc(NCc2ccccc2)c2ncn(C(C)C)c2c1
- IC50 [1]: 5.67 µM (active)
- AC50 (INS1): 8.46 µM (active)

Compound: Cc1sc(NC(=O)c2sc3nc4c(C)cccc4cc3c2N)c(C#N)c1C
- IC50 [2]: 1.44 µM (active)

Compound: COCc1cc(CN2CCCC2)c(O)c2ncccc12
- EC50 [3]: 6.21 µM (active)
- EC50 [4]: 8.4 µM (active)
- EC50 [5]: 3.07 µM (active)
- IC50 (Nonstructural protein 1): 2.31 µM (active)
- EC50 [6]: 11.4 µM (active)
- EC50 [7]: 4.17 µM (active)

Compound: COc1cccc(OCC(O)CN2CCC(CN3C(=O)c4cccc5cccc(c45)C3=O)CC2)c1 (configuration not stated)
- AC50 [8]: 10.6 µM (active)
- EC50 [5]: 2.83 µM (active)
- EC50 [7]: 9.64 µM (active)

Compound: COC(=O)C1=C(C)N(Cc2ccco2)C(=O)N[C@H]1c1ccc(Br)cc1
- CC50 [9]: 42.9 µM (active)
- IC50 (cells [10]): 3.12 µM (active)
- EC50 [11]: > 50 µM (active)

Compound: O=C(Nc1ccc(Cl)c(Cl)c1)Nc1ccc([N+](=O)[O-])cn1
- EC50 (Troponin, cardiac muscle): > 71.5 µM (inactive)

Compound: OC(CN1CCCC1)Cn1ccc2ccccc21 (configuration not stated)
- AC50 [8]: 16.1 µM (active)

Compound: c1cc2c3c(cccc3c1)NC1(CCC3(CC1)Nc1cccc4cccc(c14)N3)N2
- IC50 [1]: 7.06 µM (active)
- CC50 [12]: 20 µM (active)

Compound: COc1cc(CNC(C)(C)CO)cc(Br)c1OCc1ccc(Cl)cc1Cl
- EC50 [13]: 7.94 µM (active)
- AC50 [8]: 18.5 µM (active)
- EC50 [14]: 7.38 µM (active)
- CC50 [15]: 13.8 µM (active)
- IC50 (cells [16]): 16.7 µM (active)
- CC50 [17]: 19.4 µM (active)
- CC50 [18]: 12.5 µM (active)
- AC50 [19]: 5.33 µM (active)

Compound: N#CC(Cl)Cl
- AC50 (Cytochrome P450 3A4): 31.6 µM (inconclusive)

Compound: CC(C)CCC(C)N/C=C1/C(=O)N(Cc2ccccc2)C(=O)c2ccccc21 (configuration not stated)
- IC50 [1]: 7.34 µM (active)

Compound: CCOc1ccc(NCc2cccn2-c2nnc(N3CCC(C(=O)NCCCN4CCCCC4C)CC3)s2)cc1 (configuration not stated)
- AC50 [8]: 19.6 µM (active)
- IC50 (Large T antigen): 19.5 µM (active)

Compound: COC(=O)CNC(=O)C1(C)C=CC2(CCCCC2)N1C(=O)OC (configuration not stated)
- AC50 (Cytochrome P450 3A4): 31.6 µM (inconclusive)
